Where “and” joins values, the source holds several entries; their conditions need not be identical. Equal values may be shown once. Where a name gives a salt, the structure may show the parent alone.
Molecular target: Mitogen Activated Protein Kinase (Mek-Erk)
Test: Mitogen Activated Protein Kinase (MAPK) assay, coupled Mek-Erk
Format: biochemical, human
Settings: MBP or Myc peptide substrate, pH 7.4
Description: Mitogen Activated Protein Kinase (MAPK) Assay
To evaluate inhibitors of the MAP (mitogen activated protein) kinase a two component coupled standard pharmacological test procedure, which measures phosphorylation of a serine/threonine residue in an appropriate sequence in the substrate in the presence and absence of a putative inhibitor, was used. Recombinant human MEK 1 (MAPKK) was first used to activate recombinant human ERK2 (MAPK) and the activated MAPK (ERK) was incubated with substrate (MBP peptide or MYC peptide) in the presence of ATP, Mg^+2 and radiolabeled ^33 P ATP. The phosphorylated peptide was captured on a P 81 phosphocellulose filter (paper filter or embedded in microtiter plate) washed and counted by scintillation methods.
The peptide substrates used in the assay are MBP, peptide substrate ([…]), or synthetic Myc substrate, ([…]·5 TFA. The recombinant enzymes used were prepared as GST fusion proteins of human ERK 2 and human MEK 1. Inhibitor samples were prepared as 10×stocks in 10% DMSO and an appropriate aliquot was used to deliver either 10 ug/ml for a single point screening dose or 100, 10, 1, and 0.1 uM final concentration for a dose response curve. Final DMSO concentrations were less than or equal to 1%.
The reaction was run as follows in 50 mM Tris kinase buffer, pH 7.4 in a reaction volume of 50 ul. The appropriate volume of kinase buffer and inhibitor sample was added to the tube. Appropriate dilution of enzyme was delivered to give 2-5 ug recombinant MAPK (Erk ) per tube. The inhibitor was incubated with MAPK (Erk) for 30 min at 0 deg. C. Recombinant Mek (MAPKK) (0.5-2.5 ug) or fully activated Mek (0.05-0.1 units) was added to activate the Erk and incubated for 30 min at 30° C. Then substrate and gamma ^33 P ATP was were added to give a final concentration of 0.5-1 mM MBPP or 250-500 uM Myc; 0.2-0.5 uCi gamma P 33 ATP/tube; 50 μM ATP final concentration. Samples were incubated at 30° C. for 30 minutes and the reaction was stopped by adding 25 μl of ice cold 10% TCA. After samples were chilled on ice for 30 min, 20 μl of sample was transferred onto P 81 phosphocellulose filter paper or appropriate MTP with embedded P 81 filter. Filter papers or MTP were washed 2 times with a large volume of 1% acetic acid, then 2 times with water. The filters or MTP were briefly air dried before addition of scintillant and samples were counted in the appropriate scintillation counter set up for reading ^33 P isotope. Samples included a positive control (activated enzyme plus substrate); a no enzyme control; a no substrate control; samples with different concentrations of putative inhibitor; and samples with reference inhibitors (other active compounds or non-specific inhibitors such as staurosporine or K252 B).
The raw data was captured as cpm. Sample replicates were averaged and corrected for background count. Mean cpm data was tabulated by group and % inhibition by a test compound was calculated as (corrected cpm control-corrected. cpm sample/control)×100=% inhibition. […] The results obtained for representative compounds of this invention are listed in TABLE 2 where there may be separate entries for the same compound; this is an indication that the compound was evaluated more than one time.

Compound | IC50
CCOc1cc2ncc(C#N)c(Nc3ccc4c(c3)S(=O)(=O)C=C4)c2cc1OCC [Example 112, 4-(1,1-Dioxo-1H-benzo[b]thiophen-6-ylamino)-6,7-diethoxy-quinoline-3-carbonitrile] | > 100 µM
COc1cc2ncc(C#N)c(Nc3ccc(O)c4ncccc34)c2cc1OC [Example 135, 4-(8-Hydroxy-quinolin-5-ylamino)-6,7-dimethoxy-quinoline-3-carbonitrile] | > 100 µM
COc1ccc2ncc(C#N)c(Nc3ccc4cn[nH]c4c3)c2c1 [Example 141, 4-(1H-Indazol 6-ylamino)-6-methoxy-quinoline-3-carbonitrile] | 3 µM
COc1cc2c(Nc3ccc4cn[nH]c4c3)c(C#N)cnc2cc1OCCN(C)C [Example 167, 7-(2-Dimethylaminoethoxy)-4-(1H-indazol-6-ylamino)-6-methoxyquinoline-3-carbonitrile] | 8 µM
N#Cc1cnc2cc3c(cc2c1Nc1ccc2cn[nH]c2c1)OCCO3 [Example 125, 9-(1H-Indazol-6-ylamino)-2,3-dihydro[1,4]dioxino[2,3-g]quinoline-8-carbonitrile] | 35 µM
COc1ccc(OC)c2c(Nc3ccc4cn[nH]c4c3)c(C#N)cnc12 [Example 138, 4-(1H-Indazol-6-ylamino)-5,8-dimethoxy-quinoline-3-carbonitrile] | > 100 µM
COc1cc2c(Nc3ccc4cn[nH]c4c3)c(C#N)cnc2c(OC)c1OC [Example 128, 4-(1H-Indazol-6-ylamino)-6,7,8-trimethoxy-quinoline-3-carbonitrile] | > 100 µM and 100 µM
COc1ccc2c(Nc3ccc4cn[nH]c4c3)c(C#N)cnc2c1 [Example 143, 4-(1H-Indazol-6-ylamino)-7-methoxy-quinoline-3-carbonitrile] | 6 µM
CCOc1cc2ncc(C#N)c(Nc3ccc4ncsc4c3)c2cc1OCC [Example 97, 4-(Benzothiazol-6-ylamino)-6,7-diethoxy-quinoline-3-carbonitrile HCl Salt] | 55 µM
COc1cc2ncc(C#N)c(Nc3ccc4cn[nH]c4c3)c2cc1OCCCN1CCOCC1 [Example 139, 4-(1H-Indazol-6-ylamino)-7-methoxy-6-(3-morpholine-4-yl-propoxy)-quinoline-3-carbonitrile hydrochloride] | 15 µM
COc1ccc2ncc(C#N)c(Nc3ccc4nn[nH]c4c3)c2c1 [Example 142, 4-(3H-Benzotriazol-5-ylamino)-6-methoxy-quinoline-3-carbonitrile] | 30 µM
COc1cc2ncc(C#N)c(Nc3ccc4[nH]c(=O)sc4c3)c2cc1OC [Example 131, 6,7-Dimethoxy-4-(2-oxo-2,3-dihydro-benzothiazol-6-ylamino)-quinoline-3-carbonitrile] | > 100 µM
CCOc1cc2ncc(C#N)c(Nc3ccc4[nH]c(=O)oc(=O)c4c3)c2cc1OCC [Example 109, 4-(2,4-Dioxo-1,4-dihydro-2H-benzo[d][1,3]oxazin-6-ylamino)-6,7-diethoxy-quinoline-3-carbonitrile] | > 100 µM
COc1ccc2c(Nc3ccc4[nH]nnc4c3)c(C#N)cnc2c1 [Example 144, 4-(3H-benzotriazol-5-ylamino)-7-methoxy-quinoline-3-carbinitile] | > 100 µM
COc1cc2ncc(C#N)c(Nc3cccc4cccnc34)c2cc1OC [Example 134, 6,7-Dimethoxy-4-(quinolin-8-ylamino)-quinoline-3-carbonitrile] | > 100 µM
COc1cc2ncc(C#N)c(Nc3ccc4ncccc4c3)c2cc1OC [Example 153, 6,7-Dimethoxy-4-(quinoline-6-ylamino)-quinoline-3-carbonitrile] | > 100 µM
COc1cccc2c(Nc3ccc4nn[nH]c4c3)c(C#N)cnc12 [Example 149, 4-(3H-benzotriazol-5-ylamino)-8-methoxy-quinoline-3-carbonitrile] | > 100 µM
COc1cc2ncc(C#N)c(Nc3ccc4c(C)cc(=O)[nH]c4c3)c2cc1OC [Example 129, 6,7-Dimethoxy-4-(4-methyl-2-oxo-1,2-dihydro-quinolin-7-ylamino)-quinoline-3-carbonitrile] | > 100 µM
COc1cc2ncc(C#N)c(Nc3ccc4sc(C)nc4c3)c2cc1OC [Example 130, 6,7-Dimethoxy-4-(2-methyl-benzothiazol-5-ylamino)-quinoline-3-carbonitrile] | > 100 µM
COc1cc2ncc(C#N)c(Nc3ccc4cn[nH]c4c3)c2cc1OC [Example 102, 6,7-Dimethoxy-4-(1H-indazol-6-ylamino)-quinoline-3-carbonitrile] | 0.5 µM
COc1ccc2c(Nc3ccc4[nH]ccc4c3)c(C#N)cnc2c1 [Example 146, 4-(1H-Indol-5-ylamino)-7-methoxy-quinoline-3-carbonitrile] | 3 µM
COc1cc2c(Nc3ccc4nn[nH]c4c3)c(C#N)cnc2c(OC)c1OC [Example 156, 4-(3H-Benzotriazol-5-ylamino)-6,7,8-Trimethoxy-quinoline-3-carbonitrile] | 35 µM
COc1cc2ncc(C#N)c(Nc3cccc4c3CCCC4)c2cc1OC [Example 155, 6,7-Dimethoxy-4-(5,6,7,8,-tetrahydro-naphthalen-1-ylamino)-quinoline-3-carbonitrile] | 4 µM
COc1cccc2c(Nc3ccc4cn[nH]c4c3)c(C#N)cnc12 [Example 148, 4-(1H-Indazol-6-ylamino)-8-methoxy-quinoline-3-carbonitrile] | > 100 µM
COc1cc2ncc(C#N)c(Nc3cccc4ncccc34)c2cc1OC [Example 132, 6,7-Dimethoxy-4-(quinolin-5-ylamino)-quinoline-3-carbonitrile] | 90 µM
CCOc1cc2ncc(C#N)c(Nc3ccc4c(c3)C(=O)NC4=O)c2cc1OCC [Example 104, 4-(1,3-Dioxo-2,3-dihydro-1H-isoindol-5-ylamino)-6,7-diethoxy-quinoline-3-carbonitrile] | 35 µM
COc1cc2ncc(C#N)c(Nc3ccc4[nH]c(C)nc4c3)c2cc1OC [Example 152, 6,7-Dimethoxy-4-(2-methyl-1H-benzoimidazol-5-ylamino)-quinoline-3-carbonitrile] | > 100 µM
CCOc1cc2c(Nc3ccc4cn[nH]c4c3)c(C#N)cnc2cc1OC [Example 126, 6-Ethoxy-4-(1H-indazol-6-ylamino)-7-methoxyquinoline-3-carbonitrile] | > 100 µM
COc1cc2ncc(C#N)c(Nc3cccc4cnccc34)c2cc1OC [Example 133, 4-(Isoquinolin-5-ylamino)-6,7-dimethoxy-quinoline-3-carbonitrile] | 90 µM

Same assay, conditions: MBP or Myc peptide substrate, pH 7.4; hydrochloride

Compound | IC50
COc1cc2ncc(C#N)c(Nc3ccc4[nH]nnc4c3)c2cc1OCCCN1CCOCC1 [Example 140, 4-(3H-Benzotriazol-5-ylamino)-7-methoxy-6-(3-morpholin-4-yl-proloxy)-quinoline-3-carbonitrile hydrochloride] | 22 µM and 15 µM
